According to publication PMC11898701, “Evaluating Therapeutic Efficacy of the Vascular Disrupting Agent OXi8007 Against Kidney Cancer in Mice” (Cancers, 2025):
Where two headings read alike, the source gives them in different places. Marks after values point to notes of the source that are not given here.

Assays:
[1] = Pharmacokinetic study in Renca-luc tumor-bearing BALB/c mice; assay type: in vivo, mouse; details: for Tmax / half-life / Cmax: ip; for Cmax: read-out: Cmax
Method: Plasma and tissues were harvested at various time points (20 min to 16 h) from Renca-luc tumor-bearing BALB/c male mice following the administration of OXi8007 IP. Mice treated with 250 mg/kg were sacrificed at 20 min (n = 3), 1 h (n = 4), 2 h (n = 4), 4 h (n = 4), 8 h (n = 4), and 16 h (n = 4). Mice were anesthetized, exsanguinated, the tissues were blotted, and then they were weighed and frozen in liquid nitrogen. Homogenized plasma and tissue samples were extracted with acetonitrile with a bead mill; internal standard (CA4 or tri-labeled ^13C-OXi8006) was added to each sample to reach a final concentration of 10 ppb. Samples were centrifuged twice to remove precipitated proteins (16,260× g for 10 min at 4 °C). Clear supernatant was transferred into MS vials, and formic acid was added to a final concentration of 0.1% for LC-MS analysis. […] Mobile phase A consisted of 0.1% v/v formic acid in water, and mobile phase B was acetonitrile, which was mixed by the binary pump with an elution gradient at a flow rate of 0.6 mL/min. Data were analyzed using Xcalibur 4.6 software based on exact masses, and Phoenix WinNonlin 8.5.0 software was used to determine the pharmacokinetic parameters based on a non-compartmental model.

[2] = Blood pressure assessment (CODA system); assay type: in vivo, mouse
Method: Blood pressure was measured using a CODA system (Kent Scientific, Torrington, CT, USA) on 5 adult male BALB/c mice. Mice were anesthetized with 2% isoflurane in oxygen at 1 dm^3/min and placed on the CODA IR heating pad with a feedback rectal temperature probe and nosecone to maintain anesthesia. An occlusion cuff and VPR cuff were placed on the tail. The baseline measurement was recorded over 30 min, then OXi8007 (250 mg/kg or 325 mg/kg) was administered IP and the blood pressure measurement resumed for 45 min. As positive and negative controls, hydralazine (1 mg/kg) or saline, respectively, were injected IP.

[3] = male, BALB/c, mouse, in vivo, 250 mg/kg, brain, after OXi8007 250 mg/kg IP
[4] = male, BALB/c, mouse, in vivo, 250 mg/kg, heart, after OXi8007 250 mg/kg IP
[5] = male, BALB/c, mouse, in vivo, 250 mg/kg, left kidney, after OXi8007 250 mg/kg IP
[6] = male, BALB/c, mouse, in vivo, 250 mg/kg, liver, after OXi8007 250 mg/kg IP
[7] = male, BALB/c, mouse, in vivo, 250 mg/kg, lungs, after OXi8007 250 mg/kg IP
[8] = male, BALB/c, mouse, in vivo, 250 mg/kg, plasma, after OXi8007 250 mg/kg IP
[9] = male, BALB/c, mouse, in vivo, 250 mg/kg, spleen, after OXi8007 250 mg/kg IP
[10] = male, BALB/c, mouse, in vivo, 250 mg/kg, tumor and right kidney, after OXi8007 250 mg/kg IP

COc1ccc2c(C(=O)c3cc(OC)c(OC)c(OC)c3)c(-c3ccc(OC)c(OP(=O)(O)O)c3)[nH]c2c1 [OXi8007]
Concentration in the tumor, molar equivalent ([1]; Renca-luc tumor, from 15 ng/mg): 32 µM
Concentration in the tumor ([1]; Renca-luc tumor, maximum): 15 ng/mg
AUC ([1]; brain, after OXi8007 250 mg/kg IP): 0.11 ng·h/mg
AUC ([1]; heart, after OXi8007 250 mg/kg IP): 1.32 ng·h/mg
AUC ([1]; left kidney, after OXi8007 250 mg/kg IP): 2.05 ng·h/mg
AUC ([1]; liver, after OXi8007 250 mg/kg IP): 12.67 ng·h/mg
AUC ([1]; lungs, after OXi8007 250 mg/kg IP): 2.3 ng·h/mg
concentration at 4 h ([1]; male, BALB/c, mouse, in vivo, 250 mg/kg, plasma, within 4 h after OXi8007 IP): 10 µg/mL
Tmax ([1]; male, BALB/c, mouse, in vivo, 250 mg/kg, Renca-luc tumors, IP administration, read-out: Time to maximum concentration in tumors): ≤ 60 min
half-life [1, 3]: 30.6 min
Cmax [1, 3]: 70 ng/g
Tmax ([1]; male, BALB/c, mouse, in vivo, 250 mg/kg, brain, after OXi8007 250 mg/kg IP, read-out: Tmax (converted)): 60 min
half-life [1, 4]: 36.6 min
Cmax [1, 4]: 1620 ng/g
Tmax ([1]; male, BALB/c, mouse, in vivo, 250 mg/kg, heart, after OXi8007 250 mg/kg IP, read-out: Tmax (converted)): 20 min
half-life [1, 5]: 70.8 min
Cmax [1, 5]: 1400 ng/g
Tmax ([1]; male, BALB/c, mouse, in vivo, 250 mg/kg, left kidney, after OXi8007 250 mg/kg IP, read-out: Tmax (converted)): 20 min
half-life [1, 6]: 66 min
Cmax [1, 6]: 13400 ng/g
Tmax ([1]; male, BALB/c, mouse, in vivo, 250 mg/kg, liver, after OXi8007 250 mg/kg IP, read-out: Tmax (converted)): 20 min
half-life [1, 7]: 42 min
Cmax [1, 7]: 1610 ng/g
Tmax ([1]; male, BALB/c, mouse, in vivo, 250 mg/kg, lungs, after OXi8007 250 mg/kg IP, read-out: Tmax (converted)): 20 min
half-life [1, 8]: 49 min
half-life ([1]; male, BALB/c, mouse, in vivo, 250 mg/kg, plasma, after OXi8007 250 mg/kg IP, Renca-luc tumor-bearing BALB/c mice): 49.2 min
Cmax [1, 8]: 453 µg/mL
Tmax ([1]; male, BALB/c, mouse, in vivo, 250 mg/kg, plasma, after OXi8007 250 mg/kg IP, read-out: Tmax (converted)): 20 min
half-life [1, 9]: 39 min
Cmax [1, 9]: 990 ng/g
Tmax ([1]; male, BALB/c, mouse, in vivo, 250 mg/kg, spleen, after OXi8007 250 mg/kg IP, read-out: Tmax (converted)): 60 min
half-life [1, 10]: 120 min
Cmax [1, 10]: 15000 ng/g
Tmax ([1]; male, BALB/c, mouse, in vivo, 250 mg/kg, tumor and right kidney, after OXi8007 250 mg/kg IP, read-out: Tmax (converted)): 60 min
Plasma concentration ([1]; plasma, maximum, after OXi8007 IP): about 450 µg/mL
AUC ([1]; plasma, after OXi8007 250 mg/kg IP, zero to last quantifiable concentration): 511 ^# h × ng/µL
AUC ([1]; spleen, after OXi8007 250 mg/kg IP): 1.41 ng·h/mg
AUC ([1]; tumor and right kidney, after OXi8007 250 mg/kg IP): 36.31 ng·h/mg
Duration of temporary elevation in blood pressure ([2]; 250 mg/kg IP): less than 20 min
Diastolic blood pressure after administration ([2]; 250 mg/kg IP, 5 male BALB/c mice, baseline 84 ± 2): 82 mmHg
Mean blood pressure after administration ([2]; 250 mg/kg IP, 5 male BALB/c mice, baseline 94 ± 2): 94 mmHg
Systolic blood pressure after administration ([2]; 250 mg/kg IP, 5 male BALB/c mice, baseline 115 ± 3): 117 mmHg
Effect on mouse blood pressure ([2]; 250 mg/kg IP, systolic, diastolic or mean): minimal effect
Effect on mouse blood pressure ([2]; 325 mg/kg IP): larger transient change
